In one data set the test system is HeLa nuclear HDACs. As to the kind of experiment: HDAC fluorometric activity assay, HeLa nuclear extract. Particulars: read-out: IC50 HeLa Nuclear HDACs; Boc-Lys(Ac)-AMC 10 μM.
A further data set addresses T1, Aβ1-42 (Homo sapiens, UniProt P05067).
T1 construct: Aβ1-42 peptides were purchased from Kelowna International Scientific Inc; purchased Kelowna International Scientific Inc
As to the kind of experiment: Inhibition of Aβ1-42 self-aggregation, thioflavin-T (ThT) fluorescence assay. It is filed as biochemical. The conditions noted are these: 24 h; for IC50: read-out: Beta-Amyloid Aggregation IC50; for inhibition at 10 µM: single concentration of 10 μM, read-out: Beta-Amyloid Aggregation Inhibition (%). Here is the method:
Inhibition of Aβ1-42 self-aggregation was measured by thioflavin-T (ThT) fluorescence assay ([Hudson et al., 2009]). Aβ1-42 peptides were purchased from Kelowna International Scientific Inc. To avoid Aβ1-42 self-aggregation before the start of the experiment, Aβ1-42 peptides were dissolved in hexafluoroisopropanol (HFIP) to a concentration of 1 mM. The clear solution containing the dissolved peptide was then aliquoted in micro centrifuge tube. The solution was evaporated under vacuum to remove HFIP to give monomeric Aβ1-42. The monomeric Aβ1-42 was dissolved in NaOH(aq) (60 mM) to give a stock solution (1 mM). The Aβ1-42 stock solution was diluted with 50 mM phosphate buffer (containing 0.15 M NaCl, pH 7.4) before use. Fresh ThT stock solution was prepared by dissolving ThT (Sigma, T3516) in phosphate buffer and filtrated through […] Nylon syringe filter. The ThT stock solution and 400 mM ethylenediaminetetraacetic acid (EDTA) were diluted into the phosphate buffer to generate the working solution as background. A mixture of working solution (ThT final concentration: 10 μM), Aβ1-42 stock solution (Aβ1-42 final concentration: 10 μM) and the tested compounds were incubated on BioShake iQ ThermoMixer (37°C, 700 rpm) for 24 h. Fluorescence was measured by Victor 2X microplate spectrophotometer (excitation λ = 440 nm, emission λ = 486 nm), and adapted for 96-well microtiter plates. The fluorescence intensities were recorded and the percent inhibition due to the presence of the inhibitors were calculated by the following formula: (1 - IFi/IFc) × 100% where IFi and IFc were the fluorescence intensities obtained for Aβ1-42 in the presence and in the absence of inhibitors after subtracting the background, respectively. The IC50 values were calculated by the linear regression model of the data. All experiments were performed in triplicate.

The test system of data set [1] is SH-SY5Y cells. As to the kind of experiment: Neuroprotection against H2O2-induced neurotoxicity on SH-SY5Y cells, MTT assay. Particulars: Homo sapiens, compound 40 μM, 500 μM H2O2, 3 h, percentage of control, H2O2 alone 34.6%, read-out: Cell viability after H2O2 exposure. It is filed as cell-based. The protocol: (§1) SH-SY5Y cells were kindly provided by Professor Zhi-Hong Wen (National Sun Yat-sen University) and cultured in DMEM/F12 (Gibco, Grand Island, NY, United States) supplemented with 10% heat-inactivated fetal bovine serum and penicillin (100 U/ml)/streptomycin (100 μg/ml) (Invitrogen, Carlsbad, CA, United States) at 37°C in an atmosphere of 5% CO2.
H2O2-induced neurotoxicity on SH-SY5Y cells was used to evaluate the neuroprotective effect ([Rafatian et al., 2012]; [Omar et al., 2017]). Briefly, a density of 2 × 10^4 SH-SY5Y cells were seeded per well in 96-well plates. After 24 h of incubation, the medium was replaced with serum free medium containing H2O2 at a concentration of 500 μM and treated with different concentrations of compounds (40, 20, and 10 μM). SH-SY5Y cells were also cultured without any treatment as control group and results were indicated by percentage of control. After 3 h, cell viability was performed by MTT assay. The cells were treated with MTT (5 mg/ml in PBS) for 4 h at 37°C. The formazan crystals were generated by viable mitochondrial succinate dehydrogenase from MTT. The supernatant was then aspirated off and the formazan crystals were dissolved with DMSO. Absorbance at 570 nm was determined by Tecan Sunrise microplate reader. The trypan blue exclusion test was also used to evaluate the neuroprotection.
Background: Tetrazolium dyes change colour on reduction, which living cells bring about.

In data set [2] the test system is SH-SY5Y cells. As to the kind of experiment: Cytotoxicity effect on SH-SY5Y cells, alamar blue cell viability assay. It is filed as cell-based, human. The conditions noted are these: 40 μM, 24 h. The protocol: as §1
Cell viability was assessed using the alamar blue (7-hydroxy-10-oxidophenoxazin-10-ium-3-one) cell viability assay in 6 replicates as described previously ([Feng et al., 2016]). Briefly, 5 × 10^3 cells/well were seeded in 96-well flat-bottomed plates; 24 h later, cells were treated with compounds or DMSO as control. After 24 h of incubation, the medium was removed, 100 μL medium containing 10 μL of alamar blue was added, and cells were incubated in the 5% CO2 incubator at 37°C for 4 h. Absorbance at 570 nm was determined by Synergy HT microplate reader. The results were averaged over three different independent experiments. The cell viability was also evaluated by trypan blue exclusion test.

The IC50 is the concentration needed to halve the response being measured. One may read the inhibition as the relative decrease from the control value, in per cent. One may read the viability as a read-out of living cells in per cent, often relative to untreated cells.

T1 sequence (P05067 672-713 limits assumed): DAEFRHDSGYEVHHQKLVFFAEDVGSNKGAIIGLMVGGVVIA
Procedure for HeLa nuclear HDACs: Enzyme, inhibitors and substrate were diluted with HDAC buffer (15 mM Tris-HCl pH 8.1, 0.25 mM EDTA, 250 mM NaCl, 10% v:v glycerol). Briefly, 10 μL diluted HDAC, i.e., HeLa nuclear extract (Enzo), HDAC6 (BPS), HDAC4, HDAC5 (BPS), HDAC7 (BPS) and HDAC9 (BPS), as well as 50 μL of testing compounds at different concentrations were added to each well of a 96-well microtiter plate and pre-incubated at 30°C for 5 min. […] The fluorescence in wells without test compounds (0.1% DMSO, negative control) was set as 100% enzymatic activity and the fluorescence in wells with enzyme eliminated was set as 0% enzymatic activity. The fluorescence ratio of test compounds to negative control was defined as percentage of remaining enzyme activity. The IC50 values were calculated by linear regression of the data. All experiments were performed in triplicate.

Turning to `O=C(/C=C/c1ccc(O)cc1)CCCCc1ccccc1` [Compound 4b], in the data set with HeLa nuclear HDACs, the 50% inhibitory concentration (IC50) is above 40 µM. Also, at Aβ1-42, the IC50 was above 10 µM and the inhibition at 10 µM was 28.7 ± 6.3%.
As to `O=C(CCCCc1ccccc1)CCc1cccc(O)c1` [Compound 5d], the IC50 with HeLa nuclear HDACs was above 40 µM. On Aβ1-42, the IC50 is above 10 µM and the inhibition at 10 µM is -22.1 ± 2%.
As to `O=C(/C=C/c1ccccc1)CCCCc1ccccc1` [Compound 4a], the 50% inhibitory concentration (IC50) in the data set with HeLa nuclear HDACs is above 40 µM. Moreover, on Aβ1-42, the half-maximal inhibitory concentration (IC50) was above 10 µM and the inhibition at 10 µM amounted to 11.9 ± 1%.
For `COc1cc(CCC(=O)CCCCc2ccccc2)ccc1O` [Compound 5i], the concentration for half-maximal inhibition (IC50) in the data set with HeLa nuclear HDACs is above 40 µM. Also, on Aβ1-42, the 50% inhibitory concentration (IC50) was above 10 µM and the inhibition at 10 µM came out at 4.6 ± 11.7%.
For `O=C(/C=C/c1ccc(O)c(F)c1)CCCCc1ccccc1` [Compound 4f], the IC50 with HeLa nuclear HDACs is above 40 µM. In addition, on Aβ1-42, the IC50 was above 10 µM and the inhibition at 10 µM was determined as 34.9 ± 9.2%.
Turning to `O=C(/C=C/c1ccc(O)c(O)c1)CCc1ccccc1` [Compound 7c], the IC50 in the data set with HeLa nuclear HDACs was above 40 µM. Further, at Aβ1-42, the IC50 was determined as 3.4 ± 0.4 µM and the inhibition at 10 µM was found to be 83.7 ± 0.8%.
For the compound `O=C(CCCCc1ccccc1)CCc1ccc(O)cc1` [Compound 5b], the IC50 in the data set on HeLa nuclear HDACs is above 40 µM. Besides, at Aβ1-42, the half-inhibitory concentration (IC50) is above 10 µM and the inhibition at 10 µM came to 30.4 ± 1%.
With `O=C(CCc1ccc(O)c(O)c1)Cc1ccccc1` [Compound 8b], the IC50 with HeLa nuclear HDACs is above 40 µM. Besides, at Aβ1-42, the 50% inhibitory concentration (IC50) amounted to 8.1 ± 1.2 µM and the inhibition at 10 µM is 68.6 ± 4.1%.
For `O=C(/C=C/c1cccc(O)c1)CCCCc1ccccc1` [Compound 4d], the IC50 with HeLa nuclear HDACs was above 40 µM. On Aβ1-42, the IC50 is above 10 µM and the inhibition at 10 µM is 0.7 ± 1.5%.
Take `COc1cc(/C=C/C(=O)CCCCc2ccccc2)ccc1O` [Compound 4k]: the figures for the concentration for half-maximal inhibition (IC50) in the data set on HeLa nuclear HDACs and at Aβ1-42 were above 40 µM and above 10 µM, respectively. The inhibition at 10 µM at Aβ1-42 came to 23.1 ± 6.4%.
As to `O=C(/C=C/c1cccc(O)c1O)CCCCc1ccccc1` [Compound 4e], the IC50 in the data set with HeLa nuclear HDACs was above 40 µM. In addition, at Aβ1-42, the 50% inhibitory concentration (IC50) worked out at 3.4 ± 0.6 µM and the inhibition at 10 µM was 91.7 ± 2.5%.
Consider `O=C(CCCCc1ccccc1)CCc1ccccc1` [Compound 5a], for which the values for the IC50 with HeLa nuclear HDACs and on Aβ1-42 were above 40 µM and above 10 µM, respectively. Further, the inhibition at 10 µM at Aβ1-42 was 14 ± 3%.
On to `O=C(CCc1ccccc1)CCc1ccc(O)c(O)c1` [Compound 8c], for which the IC50 in the data set on HeLa nuclear HDACs is above 40 µM. For the same compound, at Aβ1-42, the half-inhibitory concentration (IC50) was found to be 8 ± 1.6 µM and the inhibition at 10 µM is 71.3 ± 3.8%.
For `O=C(/C=C/c1ccc(O)c(O)c1)CCCc1ccccc1` [Compound 7d], the 50% inhibitory concentration (IC50) was above 40 µM in the data set on HeLa nuclear HDACs and 3.1 ± 0.3 µM on Aβ1-42. Further, the inhibition at 10 µM on Aβ1-42 stood at 74 ± 9.5%.
Regarding `O=C(CCCCc1ccccc1)CCc1cccc(O)c1O` [Compound 5e], the viability at 40 µM in the data set with SH-SY5Y cells [1] was determined as 58.8%. In addition, in the data set with SH-SY5Y cells [2], the “Cytotoxicity to SH-SY5Y cells” value is reported as “did not show significant cytotoxicity”. The values for the IC50 in the data set on HeLa nuclear HDACs and at Aβ1-42 were above 40 µM and 6 ± 0.9 µM, respectively. For the same compound, the inhibition at 10 µM on Aβ1-42 amounted to 65.9 ± 0.2%.
Regarding `O=C(CCCCc1ccccc1)CCc1ccc(O)c(Cl)c1` [Compound 5g], the 50% inhibitory concentration (IC50) in the data set with HeLa nuclear HDACs is above 40 µM. On Aβ1-42, the half-maximal inhibitory concentration (IC50) was above 10 µM and the inhibition at 10 µM came out at 17.8 ± 2.8%.
With `O=C(/C=C/c1ccc(O)c(O)c1)CCCCc1ccccc1` [Compound 4c], the half-inhibitory concentration (IC50) in the data set on HeLa nuclear HDACs is above 40 µM; on Aβ1-42, 6.1 ± 1.3 µM. Further, the inhibition at 10 µM on Aβ1-42 is 76.2 ± 2.7%.
As to `O=C(/C=C/c1ccc(O)c(Cl)c1)CCCCc1ccccc1` [Compound 4g], the IC50 in the data set with HeLa nuclear HDACs was above 40 µM; at Aβ1-42, above 10 µM. Further, the inhibition at 10 µM at Aβ1-42 was found to be 27.8 ± 7.1%.
Regarding `O=C(/C=C/c1ccc(O)c(O)c1)Cc1ccccc1` [Compound 7b], the half-inhibitory concentration (IC50) with HeLa nuclear HDACs is above 40 µM. Besides, on Aβ1-42, the IC50 was found to be 2.1 ± 0.2 µM and the inhibition at 10 µM turned out to be 79.4 ± 2.6%.
For `O=C(CCCCc1ccccc1)CCc1ccc(O)c(O)c1` [Compound 5c], in the data set with SH-SY5Y cells [1], the viability at 40 µM was found to be 61.3%. Moreover, the “Cytotoxicity to SH-SY5Y cells” value with SH-SY5Y cells [2] is listed as “did not show significant cytotoxicity”. Further, in the data set with HeLa nuclear HDACs, the half-maximal inhibitory concentration (IC50) was above 40 µM. In addition, at Aβ1-42, the half-inhibitory concentration (IC50) was determined as 5.8 ± 0.2 µM and the inhibition at 10 µM turned out to be 67.8 ± 3.4%.
In the case of `O=C(/C=C/c1ccc(O)c(O)c1)c1ccccc1` [Compound 7a], the 50% inhibitory concentration (IC50) with HeLa nuclear HDACs was above 40 µM. Besides, on Aβ1-42, the IC50 was 2.3 ± 0.2 µM and the inhibition at 10 µM is 83.1 ± 1.9%.
Turning to `O=C(CCCCc1ccccc1)CCc1ccc(O)c(F)c1` [Compound 5f], the concentration for half-maximal inhibition (IC50) in the data set with HeLa nuclear HDACs is above 40 µM. Moreover, at Aβ1-42, the IC50 was above 10 µM and the inhibition at 10 µM came out at 22.1 ± 11.1%.
Consider `O=C(/C=C/c1ccc(O)c([N+](=O)[O-])c1)CCCCc1ccccc1` [Compound 4i], for which the IC50 in the data set with HeLa nuclear HDACs is above 40 µM. In addition, on Aβ1-42, the IC50 was above 10 µM and the inhibition at 10 µM turned out to be 49 ± 2.9%.
The matching figures for `O=C(CCc1ccc(O)c(O)c1)c1ccccc1` [Compound 8a]: above 40 µM, 8.6 ± 1.1 µM and 66.4 ± 1%.
On to `O=C(CCCCc1ccccc1)CCc1ccc(O)c(Br)c1` [Compound 5h], for which, in the data set with HeLa nuclear HDACs, the half-maximal inhibitory concentration (IC50) was above 40 µM. On Aβ1-42, the concentration for half-maximal inhibition (IC50) is above 10 µM and the inhibition at 10 µM stood at 1 ± 3%.
With `O=C(/C=C/c1cc(O)c(O)c(O)c1)CCCCc1ccccc1` [Compound 4j], in the data set with SH-SY5Y cells [1], the viability at 40 µM was 88.3%. Further, in the data set on SH-SY5Y cells [2], the “Cytotoxicity to SH-SY5Y cells” value is “did not show significant cytotoxicity”. The IC50 with HeLa nuclear HDACs was above 40 µM. In addition, on Aβ1-42, the IC50 turned out to be 3.6 ± 1 µM and the inhibition at 10 µM is 78.7 ± 6.2%.
On to `O=C(CCCc1ccccc1)CCc1ccc(O)c(O)c1` [Compound 8d], for which the half-inhibitory concentration (IC50) with HeLa nuclear HDACs was above 40 µM. Also, on Aβ1-42, the IC50 was 8.5 ± 0.2 µM and the inhibition at 10 µM is 59 ± 5.8%.
Turning to `O=C(/C=C/c1ccc(O)c(Br)c1)CCCCc1ccccc1` [Compound 4h], the IC50 in the data set on HeLa nuclear HDACs was above 40 µM. Moreover, on Aβ1-42, the IC50 is above 10 µM and the inhibition at 10 µM came to 28.1 ± 2.1%.
